# Data taken from patent US11060059B2, “Methods of producing T cell populations enriched for stable regulatory T-cells” (The USA, as represented by the Secretary, Department of …, priority 2011, dated 2021).
# System: Foxp3+Helios+ Tregs
# Assay: Foxp3 and Helios staining (flow cytometry) of Tregs stimulated/expanded in vitro with anti-CD3/anti-CD28 and IL-2
# Type: cell-based, human
# From the text: To determine if a correlation exists between Helios expression and TSDR methylation status, four different CD4^+ subsets (Foxp3^+Helios^+, Foxp3^+Helios^−, Foxp3^−Helios^+, and Foxp3^−Helios^−) were isolated and expression of various proteins analyzed. Briefly, human PBMCs were obtained from 20-80 year-old healthy male donors by Department of Transfusion Medicine at National Institutes of Health. CD4^+CD25^hiCD127^− Tregs were isolated by cell sorting on a FACSAria. Sorted Treg (0.2×10^6) cells were re-suspended in complete RPMI-1640 supplemented with 10% heat-inactivated fetal calf serum, and stimulated in plates coated with anti-CD3ϵ (10 μg/ml) and anti-CD28 (2 μg/ml) in the presence of IL-2 (150 U/ml) for 5-6 days. Stimulated cells were washed in RPMI 1640-10 media twice and expanded in complete RPMI 1640-10 with recombinant IL-2 (150 U/ml) for 5-10 days in the presence of Treg-expander magnetic beads (Cell:Bead=4:1). To evaluate the purity of sorted Tregs, cells were stained with anti-Foxp3 and anti-Helios (Biolegend) in Foxp3-staining buffer (eBioscience). All flow cytometry was performed on a FACS LSRII flow cytometer (Becton Dickinson) and analyzed with FlowJo software (TreeStar).
# Initially, two potential candidates were selected for testing: TGFβ, and the toll-like receptor 9 (TLR9) agonist CpG oligodeoxynucleotide (ODN). […]
Compound,effect on the stabilization of Foxp3+Helios+ T cells (TLR 7 / TLR 8 agonists at 10 μM compared with CpG ODN (FIG. 6B)),"stabilization / increase of the Foxp3+Helios+ population, single agents (CD4+CD25+ cells, 5 days with agent alone, then 7 days without (FIG. 2B))"
CCCCNc1nc(N)c2[nH]c(=O)n(Cc3ccc(C(=O)NCC(=O)O)cc3)c2n1 [CL264],Neither the TLR 8 nor the TLR 7 agonists had any effect,–
"TGFβ: TGFβ, candidate factor added at 5 ng/ml during Treg stimulation",–,modest increase
